The record followed here is patent US7851637B2, “Compounds and methods for inhibiting the interaction of BCL proteins with binding partners” (Infinity Pharmaceuticals, Inc., priority 2004, dated 2010).

For one test, the target named is Bcl-xL (Homo sapiens, UniProt Q07817). In words: Bcl-xL binding affinity analysis (fluorescence polarization binding assay). Further details: scale not given here. The method in brief:
(§1)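 In vitro measurement of compound binding to each protein by fluorescence polarization, described as sensitive and quantitative.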

The next test concerns the target Bcl-2 (Homo sapiens, UniProt P10415). As to the kind of experiment: Bcl-2 binding affinity analysis (fluorescence polarization binding assay). The method in brief: as §1
(Polarisation of emitted light reports the rotation of a fluorescent probe.)

pKi: −log10 of the molar value. A value given as a limit tells only on which side of the number the result lay.

Chain of Bcl-xL (Q07817 whole entry): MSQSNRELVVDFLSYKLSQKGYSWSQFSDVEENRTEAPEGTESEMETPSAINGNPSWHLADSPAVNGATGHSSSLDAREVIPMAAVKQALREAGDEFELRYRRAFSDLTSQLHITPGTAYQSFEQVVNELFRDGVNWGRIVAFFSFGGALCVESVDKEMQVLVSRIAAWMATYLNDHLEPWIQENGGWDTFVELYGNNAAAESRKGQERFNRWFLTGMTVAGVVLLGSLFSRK
Chain of Bcl-2 (P10415 whole entry): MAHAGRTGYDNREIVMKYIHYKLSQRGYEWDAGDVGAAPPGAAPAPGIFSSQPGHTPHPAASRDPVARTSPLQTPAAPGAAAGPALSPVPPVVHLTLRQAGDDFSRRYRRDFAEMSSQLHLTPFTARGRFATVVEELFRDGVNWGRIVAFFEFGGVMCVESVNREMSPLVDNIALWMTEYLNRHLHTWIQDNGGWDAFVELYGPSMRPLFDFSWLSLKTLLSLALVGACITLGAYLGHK

For the compound `C[C@@H]1[C@@H](NC(=O)[C@@H]2[C@H]([C@H](C)O)[C@H](CO)ON2Cc2cccc(N3CCN(S(C)(=O)=O)CC3)c2)C[C@H]2C[C@@H]1C2(C)C` [Compound 293], the “Bcl-XL binding affinity Ki” value on Bcl-xL is on record as “♯”. On Bcl-2, the pKi (commonly the negative decadic logarithm of the Ki, by convention in mol/L) was more than 6.10.
For the compound `C[C@@H]1C(NC(=O)[C@@H]2[C@H]([C@H](C)O)[C@H](CO)ON2Cc2cccc(-c3ccc(NC(=O)N(C)CCCN(C)C)cc3)c2)C[C@@H]2CC1C2(C)C` (stereo partly shown) [Compound 282], at Bcl-xL, the “Bcl-XL binding affinity Ki” value is listed as “♯♯”. For the same compound, at Bcl-2, the pKi was more than 6.10.
Consider `C[C@@H]1[C@@H](NC(=O)[C@@H]2[C@H]([C@H](C)O)[C@H](COC(=O)NCCN3CCOCC3)ON2Cc2cccc(-c3ccc(C(=O)N(C)C)cc3)c2)C[C@H]2C[C@@H]1C2(C)C` [Compound 245], for which the “Bcl-XL binding affinity Ki” value on Bcl-xL was “♯”. For the same compound, the pKi at Bcl-2 is more than 6.10.
Take `COC(=O)[C@@H](NC(=O)[C@@H]1[C@H]([C@H](C)O)[C@H](CO)ON1Cc1cccc(C#CC2(N)CCCCC2)c1)C(C)C` [Compound 47]: at Bcl-xL, the “Bcl-XL binding affinity Ki” value was “♯♯”. On Bcl-2, the pKi was less than 4.30.
For `C[C@H](O)[C@@H]1[C@H](CO)ON(Cc2cccc(CN(CCN(C)C)Cc3ccccc3)c2)[C@@H]1C(=O)N[C@H]1CCN(Cc2ccccc2)C1` [Compound 518], the “Bcl-XL binding affinity Ki” value on Bcl-xL is given as “♯”. The same compound showed a pKi on Bcl-2 of 4.30 to 5.22.
The like results for `CC(O)C1C(CO)ON(Cc2cccc(CN(CCN(C)C)CC3CCCOC3)c2)C1C(=O)NC1CC2CC(C1C)C2(C)C` (stereo not shown) [Compound 382] were, in that order, “♯” and more than 6.10.
Consider `C[C@@H]1[C@@H](NC(=O)[C@@H]2[C@H]([C@H](C)O)[C@H](CO)ON2Cc2cccc(-c3cccc(C(=O)N[C@H]4CCNC4)c3)c2)C[C@H]2C[C@@H]1C2(C)C` [Compound 114], for which the “Bcl-XL binding affinity Ki” value on Bcl-xL was “♯”. On Bcl-2, the pKi was more than 6.10.
On to `CNCC#Cc1cccc(CN2O[C@@H](CO)[C@@H]([C@H](C)O)[C@H]2C(=O)N[C@H]2C[C@H]3CC([C@@H]2C)C3(C)C)c1` [Compound 50], for which, on Bcl-xL, the “Bcl-XL binding affinity Ki” value is recorded as “♯”. This compound also had a pKi on Bcl-2 of 5.22 to 6.10.
`CC(O)C1C(CO)ON(Cc2cccc(CNC(Cc3ccccc3)CN(C)C)c2)C1C(=O)NC1CC2CC(C1C)C2(C)C` (stereo not shown) [Compound 467]: the “Bcl-XL binding affinity Ki” value on Bcl-xL was “♯”. On Bcl-2, this compound showed a pKi of more than 6.10.
`CC(C)/N=C(/NC(C)C)N1CCN(c2cccc(CN3O[C@@H](CO)[C@@H]([C@H](C)O)[C@H]3C(=O)NC3C[C@H]4C[C@@H]([C@@H]3C)C4(C)C)c2)CC1` (stereo partly shown) [Compound 296]: at Bcl-xL, the “Bcl-XL binding affinity Ki” value is “♯”. The compound also showed a pKi at Bcl-2 of more than 6.10.
For `C[C@@H]1[C@@H](NC(=O)[C@@H]2[C@H]([C@H](C)O)[C@H](CO)ON2CCCCN(CCN(C)C)Cc2ccccc2Cl)C[C@H]2C[C@@H]1C2(C)C` [Compound 549], the “Bcl-XL binding affinity Ki” value on Bcl-xL is on record as “♯”. This compound gave a pKi on Bcl-2 of 5.22 to 6.10.
For the compound `C[C@@H]1[C@@H](NC(=O)[C@@H]2[C@H]([C@H](C)O)[C@H](CO)ON2Cc2cccc(CN(CCc3ccccc3)CCN(C)C)c2)C[C@H]2C[C@@H]1C2(C)C` [Compound 209], on Bcl-xL, the “Bcl-XL binding affinity Ki” value is “♯”. The compound further had a pKi at Bcl-2 of more than 6.10.
On to `COc1c(CN2O[C@@H](CO)[C@@H]([C@H](C)O)[C@H]2C(=O)N[C@H]2C[C@H]3C[C@@H]([C@@H]2C)C3(C)C)cccc1-c1cccc(C(=O)NCCN(C)C)c1` [Compound 165], for which the “Bcl-XL binding affinity Ki” value at Bcl-xL is “♯”. At Bcl-2, this compound had a pKi of more than 6.10.
In the case of `C[C@H](O)[C@@H]1[C@H](CO)ON(Cc2cccc(CN(CCN(C)C)Cc3ccccc3)c2)[C@@H]1C(=O)NCCCc1ccccc1` [Compound 525], at Bcl-xL, the “Bcl-XL binding affinity Ki” value is listed as “♯”. The same compound showed a pKi at Bcl-2 of 4.30 to 5.22.
Take `C[C@@H]1[C@@H](NC(=O)[C@@H]2[C@H]([C@H](C)O)[C@H](CO)ON2Cc2cccc(-c3cccc(C(=O)N(C)CCCN(C)C)c3)c2)C[C@H]2C[C@@H]1C2(C)C` [Compound 148]: the “Bcl-XL binding affinity Ki” value at Bcl-xL was “♯”. Further, the pKi at Bcl-2 was more than 6.10.
The like results for `CC(C)C[C@H](CN(C)C)NC(=O)c1cccc(-c2cccc(CN3O[C@@H](CO)[C@@H]([C@H](C)O)[C@H]3C(=O)N[C@H]3C[C@H]4C[C@@H]([C@@H]3C)C4(C)C)c2)c1` [Compound 99] were, in that order, “♯♯” and 5.22 to 6.10.
Regarding `C[C@@H]1[C@@H](NC(=O)[C@@H]2[C@H]([C@H](C)O)[C@H](CO)ON2Cc2cccc(-c3ccc4c(=O)n(C)n(C)c(=O)c4c3)c2)C[C@H]2C[C@@H]1C2(C)C` [Compound 133], the “Bcl-XL binding affinity Ki” value at Bcl-xL is recorded as “♯”. Moreover, at Bcl-2, the pKi is more than 6.10.
In the case of `CC(C)C[C@@H](CN(C)C)NC(=O)c1cccc(-c2cccc(CN3O[C@@H](CO)[C@@H]([C@H](C)O)[C@H]3C(=O)N[C@H]3C[C@H]4C[C@@H]([C@@H]3C)C4(C)C)c2)c1` [Compound 97], the “Bcl-XL binding affinity Ki” value on Bcl-xL was “♯♯”. For the same compound, on Bcl-2, the pKi was 5.22 to 6.10.
As for `CC(O)C1C(CO)ON(Cc2cccc(CNC(CCc3ccccc3)CN(C)C)c2)C1C(=O)NC1CC2CC(C1C)C2(C)C` (stereo not shown) [Compound 445], the “Bcl-XL binding affinity Ki” value at Bcl-xL is listed as “♯”. This compound gave a pKi on Bcl-2 of more than 6.10.
Take `C[C@H](O)[C@@H]1[C@H](CO)ON(Cc2cccc(C#CCNC(=O)c3ccccc3)c2)[C@@H]1C(=O)N[C@H]1C[C@H]2CC([C@@H]1C)C2(C)C` [Compound 57]: at Bcl-xL, the “Bcl-XL binding affinity Ki” value is listed as “♯”. This compound gave a pKi at Bcl-2 of 5.22 to 6.10.
Turning to `CC(O)C1C(CO)ON(Cc2cccc(C(=O)NC(CCc3ccccc3)CN(C)C)c2)C1C(=O)NC1CC2CC(C1C)C2(C)C` (stereo not shown) [Compound 511], at Bcl-xL, the “Bcl-XL binding affinity Ki” value was “♯”. The negative logarithm of the Ki (pKi) on Bcl-2 was more than 6.10.
Take `CC(O)C1C(CO)ON(Cc2cccc(CN(CCN(C)C)Cc3ccccc3N3CCN(C)CC3)c2)C1C(=O)NC1CC2CC(C1C)C2(C)C` (stereo not shown) [Compound 385]: at Bcl-xL, the “Bcl-XL binding affinity Ki” value is recorded as “♯”. Further, on Bcl-2, the negative-log Ki (pKi) is more than 6.10.
Regarding `C[C@H](O)[C@@H]1[C@H](CO)ON(Cc2cccc(C#C[C@]3(O)CC[C@H]4[C@@H]5CCc6cc(O)ccc6[C@H]5CC[C@@]43C)c2)[C@@H]1C(=O)NCCCN(C)c1ccccc1` [Compound 34], the “Bcl-XL binding affinity Ki” value at Bcl-xL is “♯”. Also, the negative-log Ki (pKi) on Bcl-2 is less than 4.30.
Taken in the same sequence, the figures for `C[C@H](O)[C@@H]1[C@H](CO)ON(Cc2cccc(CN(CCN(C)C)Cc3ccccc3)c2)[C@@H]1C(=O)NCCCN(C)C` [Compound 517] were “♯” and 4.30 to 5.22.
In the case of `CC(=O)NCCNC(=O)c1cccc(-c2cccc(CN3O[C@@H](CO)[C@@H]([C@H](C)O)[C@H]3C(=O)N[C@H]3C[C@H]4C[C@@H]([C@@H]3C)C4(C)C)c2)c1` [Compound 146], the “Bcl-XL binding affinity Ki” value on Bcl-xL is listed as “♯”. For the same compound, the negative-log Ki (pKi) at Bcl-2 was more than 6.10.
For the compound `C[C@@H]1[C@@H](NC(=O)[C@@H]2[C@H]([C@H](C)O)[C@H](CO)ON2Cc2cccc(-c3ccc(C(=O)N(C)C)c([N+](=O)[O-])c3)c2)C[C@H]2C[C@@H]1C2(C)C` [Compound 136], the “Bcl-XL binding affinity Ki” value at Bcl-xL is given as “♯”. The pKi at Bcl-2 was more than 6.10.
`CCN(CC)C(=O)c1ccc(-c2cccc(CN3O[C@@H](CO)[C@@H]([C@H](C)O)[C@H]3C(=O)N[C@H]3C[C@H]4C[C@@H]([C@@H]3C)C4(C)C)c2)cc1` [Compound 108]: the “Bcl-XL binding affinity Ki” value on Bcl-xL was “♯”. Also, on Bcl-2, the pKi was more than 6.10.
As for `C[C@@H]1[C@@H](NC(=O)[C@@H]2[C@H]([C@H](C)O)[C@H](CO)ON2Cc2cccc(CN(CCN(C)C)C3CCCCC3)c2)C[C@H]2C[C@@H]1C2(C)C` [Compound 211], the “Bcl-XL binding affinity Ki” value at Bcl-xL is on record as “♯”. On Bcl-2, the pKi was more than 6.10.
Regarding `C[C@@H]1[C@@H](NC(=O)[C@@H]2C([C@H](C)O)[C@H](CO)ON2Cc2cccc(CN(CCN(C)C)C(c3ccccc3)c3ccccc3)c2)C[C@H]2C[C@@H]1C2(C)C` (stereo partly shown) [Compound 441], the “Bcl-XL binding affinity Ki” value on Bcl-xL is “♯”. In addition, the pKi on Bcl-2 is more than 6.10.
Take `CCNC(=O)c1cccc(-c2cccc(CN3O[C@@H](CO)[C@@H]([C@H](C)O)[C@H]3C(=O)N[C@H]3C[C@H]4C[C@@H]([C@@H]3C)C4(C)C)c2)c1` [Compound 122]: the “Bcl-XL binding affinity Ki” value on Bcl-xL is “♯♯”. This compound also showed a pKi on Bcl-2 of more than 6.10.
Taken in the same sequence, the figures for `C[C@@H]1[C@@H](NC(=O)[C@@H]2[C@H]([C@H](C)O)[C@H](CO)ON2Cc2cccc(-c3ccc(C(=O)N(CCN(C)C)Cc4ccccc4)cc3)c2)C[C@H]2C[C@@H]1C2(C)C` [Compound 185] were “♯” and more than 6.10.
For `C[C@@H]1C(NC(=O)[C@@H]2[C@H]([C@H](C)O)[C@H](CO)ON2Cc2cccc(-c3ccc(NCCCN(C)C)cc3)c2)C[C@@H]2CC1C2(C)C` (stereo partly shown) [Compound 272], the “Bcl-XL binding affinity Ki” value on Bcl-xL was “♯”. At Bcl-2, this compound gave a negative-log Ki (pKi) of more than 6.10.
As to `C[C@H](O)[C@@H]1[C@H](CO)ON(Cc2cccc(CN(CCN(C)C)Cc3ccccc3)c2)[C@@H]1C(=O)NCC(c1ccccc1)c1ccccc1` [Compound 520], the “Bcl-XL binding affinity Ki” value at Bcl-xL was “♯”. Further, the pKi at Bcl-2 is 5.22 to 6.10.
Taken in the same sequence, the figures for `CC(C)C[C@@H](CN(C)C)N(Cc1ccccc1)Cc1cccc(CN2O[C@@H](CO)[C@@H]([C@H](C)O)[C@H]2C(=O)NC(C)C)c1` [Compound 539] were “♯” and 4.30 to 5.22.
For the compound `C[C@@H]1[C@@H](NC(=O)[C@@H]2C(CO)[C@H]([C@H](C)O)ON2Cc2cccc(C#CC(C)(O)c3ccccc3)c2)C[C@H]2C[C@@H]1C2(C)C` (stereo partly shown) [Compound 35], on Bcl-xL, the “Bcl-XL binding affinity Ki” value was “♯”. At Bcl-2, this compound showed a pKi of less than 4.30.
For `C[C@@H]1[C@@H](NC(=O)[C@@H]2[C@H]([C@H](C)O)[C@H](CO)ON2Cc2cccc(-c3ccc(NS(C)(=O)=O)cc3)c2)C[C@H]2C[C@@H]1C2(C)C` [Compound 298], the “Bcl-XL binding affinity Ki” value on Bcl-xL is “♯♯”. Further, the pKi on Bcl-2 is more than 6.10.
On to `C[C@@H](O)[C@H]1[C@@H](CO)ON(Cc2cccc(C#CCNC(=O)c3ccccc3)c2)[C@H]1C(=O)NCCNCc1ccccc1` [Compound 61], for which the “Bcl-XL binding affinity Ki” value at Bcl-xL is recorded as “♯”. At Bcl-2, this compound gave a pKi of 4.30 to 5.22.
The like results for `CC(C)C[C@@H](CN(C)C)N(Cc1ccccc1)Cc1cccc(CN2O[C@@H](CO)[C@@H]([C@H](C)O)[C@H]2C(=O)NCc2cccc3ccccc23)c1` [Compound 532] were, in that order, “♯” and 5.22 to 6.10.
